According to patent publication US20250332276A1, “Inhibitors of Molluscum Contagiosum Infection and Methods Using the Same” (priority 2022, published 2025):
Like-named read-outs stand apart in the source and are kept apart here. *1 amine or outer side, *2 acyl side, *3 side chain or, on linkers, in order; H or OH if unused. Where a SMILES comes first, the peptide text is derived from it. The star is where a group is joined. X1 = CCC(C(=O)Nc1sc(C(=O)*)c(C)c1C(=O)OC)c1ccc(C(F)(F)F)cc1; Ethylenediamine = C(CN[*:2])N[*:1]; Boc = CC(C)(C)OC(=O)*

Key:
[1] = biological target: T1, mD4 (Molluscum contagiosum virus, UniProt Q98260); assay: mD4 dependent processive DNA synthesis in vitro (mD4 anti-processivity); assay type: biochemical
[2] = biological target: T1, mD4; assay: Micro-Scale Thermophoresis binding to mD4; details: microscale thermophoresis
[3] = biological target: mD4 (mD4+A20+Pol) (Molluscum contagiosum virus subtype 1, UniProt Q98260); assay: biochemical
[4] = 3-Day Cell Viability Assay (cytotoxicity)
[5] = Table 2, read-out: IC50 (μM), mD4 anti-processivity activity

T1 sequence (Q98260 1-226): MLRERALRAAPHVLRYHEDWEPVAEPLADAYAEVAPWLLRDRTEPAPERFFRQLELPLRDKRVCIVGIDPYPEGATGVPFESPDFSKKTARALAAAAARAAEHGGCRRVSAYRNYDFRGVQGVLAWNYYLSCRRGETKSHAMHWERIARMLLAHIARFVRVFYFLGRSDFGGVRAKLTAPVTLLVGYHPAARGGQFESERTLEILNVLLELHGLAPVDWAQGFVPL
Sequence of mD4 (mD4+A20+Pol) (Q98260 1-226): as above

Row | Compound | IC50 [1, 5] | IC50 [3] | also measured
1 | CCC(C(=O)Nc1sc(C(=O)NCCNC(=O)[C@@H](NC(=O)[C@@H](NC(=O)OC(C)(C)C)C(C)C)C(C)C)c(C)c1C(=O)OC)c1ccc(F)cc1 (stereo partly drawn) [Compound 5, Methyl 5-(((6S,9S)-6,9-diisopropyl-2,2-dimethyl-4,7,10-trioxo-3-oxa-5,8,11-triazatridecan-13-yl)carbamoyl)-2-(2-(4-fluorophenyl)butanamido)-4-methylthiophene-3-carboxylate] | 20 µM | – | –
2 | CCC(C(=O)Nc1sc(C(=O)NCCNC(=O)[C@@H](NC(=O)[C@@H](NC(=O)[C@@H](NC(=O)OC(C)(C)C)C(C)C)C(C)C)C(C)C)c(C)c1C(=O)OC)c1ccc(F)cc1 (stereo partly drawn) [Compound 8, Methyl 2-(2-(4-fluorophenyl)butanamido)-4-methyl-S-(((6S,9S,12S)-6,9,12-triisopropyl-2,2-dimethyl-4,7,10,13-tetraoxo-3-oxa-5,8,11,14-tetraazahexadecan-16-yl)carbamoyl)thiophene-3-carboxylate] | 10.7 µM | – | –
3 | CCC(C(=O)Nc1sc(C(=O)NCCNC(=O)[C@@H](NC(=O)[C@@H](NC(=O)[C@@H](N)C(C)C)C(C)C)C(C)C)c(C)c1C(=O)OC)c1ccc(F)cc1 (stereo partly drawn) [Compound 9, Methyl 5-((2-((S)-2-((S)-2-((S)-2-amino-3-methylbutanamido)-3-methylbutanamido)-3-methylbutanamido)ethyl)carbamoyl)-2-(2-(4-fluorophenyl)butanamido)-4-methylthiophene-3-carboxylate] | – | 5.6 µM | IC50 ([1]; read-out: IC50, mD4 dependent processive DNA synthesis in vitro): 5 µM; Kd [2]: 2.84 µM; CC50 at 3 day [4]: > 100 µM; cytotoxicity, result in words ([4]; cell viability assay or seen when evaluated in mD4-VV infection): no measurable cytotoxicity
4 | CCC(C(=O)Nc1sc(C(=O)NCCNC(=O)[C@H](NC(=O)[C@H](NC(=O)[C@H](N)C(C)C)C(C)C)C(C)C)c(C)c1C(=O)OC)c1ccc(F)cc1 (stereo partly drawn) [Compound 20, Methyl 5-((2-((R)-2-((R)-2-((R)-2-amino-3-methylbutanamido)-3-methylbutanamido)-3-methylbutanamido)ethyl)carbamoyl)-2-(2-(4-fluorophenyl)butanamido)-4-methylthiophene-3-carboxylate] | 3 µM | – | –
5 | CCC(C(=O)Nc1sc(C(=O)NCCNC(=O)[C@@H](NC(=O)[C@@H](NC(=O)[C@@H](NC(=O)[C@@H](NC(=O)OC(C)(C)C)C(C)C)C(C)C)C(C)C)C(C)C)c(C)c1C(=O)OC)c1ccc(C(F)(F)F)cc1 (stereo partly drawn) [Compound 26, Methyl 4-methyl-5-(((6S,9S,12S,15S)-6,9,12,15-tetraisopropyl-2,2-dimethyl-4,7,10,13,16-pentaoxo-3-oxa-5,8,11,14,17-pentaazanonadecan-19-yl)carbamoyl)-2-(2-(4-(trifluoromethyl)phenyl)butanamido)thiophene-3-carboxylate] (Boc-VVVV-{Ethylenediamine-X1}) | 4.1 µM | – | –
6 | CC(C)[C@H](N)C(=O)N[C@H](C(=O)N[C@H](C(=O)O)C(C)C)C(C)C [TriVal-Peptide Control, ((L)-Val)3, reference compound] (H-Val-Val-Val-OH) | – | > 100 µM | –
